Source: the supplement of paper PMC10307832

Columns and labels:
Assay in all cases: relative viability (nuclei count vs DMSO), 5 days (fraction); higher = more cells survive
[1] = compound: C[C@]12O[C@H](C[C@]1(O)CO)n1c3ccccc3c3c4c(c5c6ccccc6n2c5c31)CNC4=O [Lestaurtinib] + Nc1ncn([C@H]2C[C@H](O)[C@@H](CO)O2)c(=O)n1 [Decitabine] (partner 2 µM)
Summary of the method: (§1)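 The day after seeding in 1536-well plates, lung cancer cell lines were treated by pin tool with a single drug, or with a fixed anchor-drug dose together with five library-drug doses (not always all listed) in √10 steps. After 5 days, a combined fix-and-stain solution (final 0.05% Triton X-100, 1% formaldehyde, 1 ug/ml Hoechst) was added. Nuclei counted on 4× images gave relative viability as treated counts over vehicle counts, reported as the median of duplicate plates.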

[2] = compound: C[C@]12O[C@H](C[C@]1(O)CO)n1c3ccccc3c3c4c(c5c6ccccc6n2c5c31)CNC4=O [Lestaurtinib] + C[C@]1(O)C[C@@H](c2nc(-c3ccc4ccc(-c5ccccc5)nc4c3)c3c(N)nccn32)C1 [Linsitinib] (partner 1 µM)
Summary of the method: as §1

[3] = compound: C[C@]12O[C@H](C[C@]1(O)CO)n1c3ccccc3c3c4c(c5c6ccccc6n2c5c31)CNC4=O [Lestaurtinib] + Nc1nc2[nH]cc(CCc3ccc(C(=O)N[C@@H](CCC(=O)O)C(=O)O)cc3)c2c(=O)[nH]1 [Pemetrexed] (partner 0.2 µM)
Summary of the method: as §1

TPCA-1 + Navitoclax = compound: C1=CC(=CC=C1C2=CC(=C(S2)NC(=O)N)C(=O)N)F [TPCA-1] + CC1(C)CCC(c2ccc(Cl)cc2)=C(CN2CCN(c3ccc(C(=O)NS(=O)(=O)c4ccc(N[C@H](CCN5CCOCC5)CSc5ccccc5)c(S(=O)(=O)C(F)(F)F)c4)cc3)CC2)C1 [Navitoclax] (partner 0.5 µM)
Summary of the method: as §1

UMC-11
relative viability ([1]; first compound 0.005 µM): 0.63 | relative viability ([1]; first compound 0.01581 µM): 1.49 | relative viability ([1]; first compound 0.05 µM): 0.544 | relative viability ([1]; first compound 0.1581 µM): 0.241 | relative viability ([1]; first compound 0.5 µM): 0.218 | relative viability ([2]; first compound 0.005 µM): 1.08 | relative viability ([2]; first compound 0.01581 µM): 1.06 | relative viability ([2]; first compound 0.05 µM): 0.575 | relative viability ([2]; first compound 0.1581 µM): 0.339 | relative viability ([2]; first compound 0.5 µM): 0.175 | relative viability ([3]; first compound 0.005 µM): 0.923 | relative viability ([3]; first compound 0.01581 µM): 0.859 | relative viability ([3]; first compound 0.05 µM): 0.436 | relative viability ([3]; first compound 0.1581 µM): 0.256 | relative viability ([3]; first compound 0.5 µM): 0.176 | relative viability (TPCA-1 + Navitoclax; first compound 0.04 µM): 0.354 | relative viability (TPCA-1 + Navitoclax; first compound 0.1265 µM): 0.335 | relative viability (TPCA-1 + Navitoclax; first compound 0.4 µM): 0.394 | relative viability (TPCA-1 + Navitoclax; first compound 1.265 µM): 0.415 | relative viability (TPCA-1 + Navitoclax; first compound 4 µM): 0.253
